From PMC11283679 (Gastroenterology, 2023) come the findings set out here.

pEC50: −log10 of the molar value. Ends that are not written are not given here. C(BODIPY) = not defined here

For the assay, the system named is NHE3. In kind it is cell-based, human. To be noted: for activity: read-out: Stimulation of NHE3 activity (%).

A word on the pEC50: it is the negative decadic logarithm of the EC50, by convention in mol/L. A low value points to a high EC50. On to “N3SP-1Δ5: N3SP-1 with truncation of 5 N-terminal aa (TPRPSTVEASVSYLLRESASAVCLDMQSLEQRR-{C(BODIPY)}; reading uncertain; UniProt P26432 573-605, looked up, fragment)”, for which the pEC50 is 6.81 and the activity came to 39%.
As to “N3SP-1Δ6: N3SP-1 with truncation of 6 N-terminal aa (PRPSTVEASVSYLLRESASAVCLDMQSLEQRR-{C(BODIPY)}; reading uncertain; UniProt P26432 574-605, looked up, fragment)”, the negative-log EC50 (pEC50) was 6.82 and the activity is 40%.
“N3SP-1Δ8: N3SP-1 with truncation of 8 N-terminal aa (PSTVEASVSYLLRESASAVCLDMQSLEQRR-{C(BODIPY)}; reading uncertain; UniProt P26432 576-605, looked up, fragment)”: the activity worked out at 9%.
“N3SP-1Δ9: N3SP-1 with truncation of 9 N-terminal aa (STVEASVSYLLRESASAVCLDMQSLEQRR-{C(BODIPY)}; reading uncertain; UniProt P26432 577-605, looked up, fragment)”: the “Stimulation of NHE3 activity (%)” value is given as “No”.
Consider “N3SP-1Δ18: N3SP-1 with truncation of 18 N-terminal aa (LLRESASAVCLDMQSLEQRR-{C(BODIPY)}; reading uncertain; UniProt P26432 586-605, looked up, fragment)”, for which the “Stimulation of NHE3 activity (%)” value is reported as “No”.
